Assay results reported in ChEMBL document CHEMBL4616659, “Talarolactone A, an Isocoumarin Derivative Fused with Dihydrothiophene with Selective Antimigratory Activity from the Endolichenic Fungus Talaromyces sp” (J Nat Prod, 2020).
Active and inactive are the calls of the source. The calls are words filed in the database; no cut-off is given here.

Key:
Staphylococcus aureus [1] = experiment: Antibacterial activity against Staphylococcus aureus ATCC 29213 up to 100 ug/ml incubated for 20 hrs by microbroth dilution method; type: functional, organism-based
HepG2 [2] = experiment: Cytotoxicity against human HepG2 cells at 6.25 to 50 ug/ml incubated for 24 hrs by MTT assay; type: functional, cell-based
Salmonella typhimurium = experiment: Antibacterial activity against Salmonella typhimurium ATCC 14028 up to 100 ug/ml incubated for 20 hrs by microbroth dilution method; type: functional, organism-based; conditions: Salmonella enterica subsp. enterica serovar Typhimurium
A549 = experiment: Cytotoxicity against human A549 cells at 6.25 to 50 ug/ml incubated for 24 hrs by MTT assay; type: functional, cell-based
[3] = Cytotoxicity against human THLE cells at 6.25 to 50 ug/ml incubated for 24 hrs by MTT assay; type: cell-based
HepG2 [4] = experiment: Antimigratory activity against human HepG2 cells at 25 ug/ml measured up to 60 hrs by microscopic based wound healing assay; type: functional, cell-based
Klebsiella pneumoniae [5] = experiment: Antibacterial activity against Klebsiella pneumoniae harboring NDM1 mutant up to 100 ug/ml incubated for 20 hrs by microbroth dilution method; type: functional, organism-based
[6] = Toxicity in zebrafish AB embryo up to 100 ug/ml after 24 to 88 hrs by inverted microscope; set-up: species or system Danio rerio; conditions: in vivo
Escherichia coli = experiment: Antibacterial activity against Escherichia coli ATCC 25922 up to 100 ug/ml incubated for 20 hrs by microbroth dilution method; type: functional, organism-based
Enterobacter cloacae = experiment: Antibacterial activity against Enterobacter cloacae ATCC 13047 up to 100 ug/ml incubated for 20 hrs by microbroth dilution method; type: functional, organism-based
[7] = Cytotoxicity against human HBE cells at 6.25 to 50 ug/ml incubated for 24 hrs by MTT assay; type: cell-based
Acinetobacter baumannii = experiment: Antibacterial activity against Acinetobacter baumannii ATCC 19004 up to 100 ug/ml incubated for 20 hrs by microbroth dilution method; type: functional, organism-based
Klebsiella pneumoniae [8] = experiment: Antibacterial activity against Klebsiella pneumoniae ATCC 43816 up to 100 ug/ml incubated for 20 hrs by microbroth dilution method; type: functional, organism-based
Staphylococcus aureus [9] = experiment: Antibacterial activity against Methicillin-resistant Staphylococcus aureus up to 100 ug/ml incubated for 20 hrs by microbroth dilution method; type: functional, organism-based
MCF7 = experiment: Cytotoxicity against human MCF7 cells at 6.25 to 50 ug/ml incubated for 24 hrs by MTT assay; type: functional, cell-based
MDA-MB-231 = experiment: Cytotoxicity against human MDA-MB-231 cells at 6.25 to 50 ug/ml incubated for 24 hrs by MTT assay; type: functional, cell-based

COc1cc(C(=O)O)c2c3c1C(=O)O[C@@H](C)[C@@H]3CS2
Activity (Staphylococcus aureus [1]): inactive
Activity (HepG2 [2]): inactive
Activity (Salmonella typhimurium): inactive
Activity (A549): inactive
Activity [3]: Non-Toxic
Activity (HepG2 [4]): Active
Activity (Klebsiella pneumoniae [5]): inactive
Activity [6]: Non-Toxic
Activity (Escherichia coli): inactive
Activity (Enterobacter cloacae): inactive
Activity [7]: Non-Toxic
Activity (Acinetobacter baumannii): inactive
Activity (Klebsiella pneumoniae [8]): inactive
Activity (Staphylococcus aureus [9]): inactive
Activity (MCF7): inactive
Activity (MDA-MB-231): inactive
